Experimental data reported in the NIST ThermoML archive (doi:10.1016/j.fluid.2015.03.016).
Where “and” joins values, the source holds several entries; their conditions need not be identical. Equal entries are not always repeated. Numbers after ± are expanded uncertainties.

Conditions: Liquid

CCCCOC(=O)CCCCC(=O)OCCCC [dibutyl hexanedioate]
Conditions | viscosity
313.14 K, 50610 kPa, Vibrating wire viscometry | 5.595 ± 0.093 mPa·s and 5.596 ± 0.093 mPa·s and 5.591 ± 0.093 mPa·s
313.14 K, 50640 kPa, Vibrating wire viscometry | 5.591 ± 0.093 mPa·s
313.14 K, 65090 kPa, Vibrating wire viscometry | 6.358 ± 0.11 mPa·s
313.14 K, 65110 kPa, Vibrating wire viscometry | 6.365 ± 0.11 mPa·s
313.15 K, 5050 kPa, Vibrating wire viscometry | 3.522 ± 0.065 mPa·s and 3.516 ± 0.067 mPa·s
313.15 K, 5310 kPa, Vibrating wire viscometry | 3.531 ± 0.077 mPa·s
313.15 K, 5320 kPa, Vibrating wire viscometry | 3.531 ± 0.075 mPa·s
313.15 K, 5340 kPa, Vibrating wire viscometry | 3.529 ± 0.071 mPa·s
313.15 K, 5350 kPa, Vibrating wire viscometry | 3.534 ± 0.071 mPa·s
313.15 K, 5370 kPa, Vibrating wire viscometry | 3.531 ± 0.067 mPa·s
313.15 K, 5380 kPa, Vibrating wire viscometry | 3.532 ± 0.066 mPa·s
313.15 K, 7570 kPa, Vibrating wire viscometry | 3.59 ± 0.06 mPa·s
313.15 K, 7580 kPa, Vibrating wire viscometry | 3.595 ± 0.06 mPa·s
313.15 K, 7610 kPa, Vibrating wire viscometry | 3.598 ± 0.06 mPa·s
313.15 K, 10450 kPa, Vibrating wire viscometry | 3.717 ± 0.062 mPa·s
313.15 K, 10470 kPa, Vibrating wire viscometry | 3.712 ± 0.062 mPa·s
313.15 K, 10500 kPa, Vibrating wire viscometry | 3.714 ± 0.062 mPa·s
313.15 K, 15160 kPa, Vibrating wire viscometry | 3.887 ± 0.065 mPa·s and 3.889 ± 0.065 mPa·s
313.15 K, 15180 kPa, Vibrating wire viscometry | 3.891 ± 0.065 mPa·s
313.15 K, 20420 kPa, Vibrating wire viscometry | 4.122 ± 0.069 mPa·s
313.15 K, 30150 kPa, Vibrating wire viscometry | 4.56 ± 0.076 mPa·s
313.15 K, 30200 kPa, Vibrating wire viscometry | 4.555 ± 0.076 mPa·s
323.11 K, 101.33 kPa, Capillary tube (Ostwald / Ubbelohde) method | 2.704 ± 0.084 mPa·s
323.14 K, 1140 kPa, Vibrating wire viscometry | 2.727 ± 0.045 mPa·s and 2.723 ± 0.045 mPa·s
323.14 K, 5040 kPa, Vibrating wire viscometry | 2.856 ± 0.048 mPa·s
323.14 K, 10170 kPa, Vibrating wire viscometry | 3.018 ± 0.05 mPa·s
323.14 K, 30230 kPa, Vibrating wire viscometry | 3.694 ± 0.061 mPa·s and 3.693 ± 0.061 mPa·s
323.14 K, 39990 kPa, Vibrating wire viscometry | 4.08 ± 0.068 mPa·s
323.14 K, 40050 kPa, Vibrating wire viscometry | 4.079 ± 0.068 mPa·s
323.15 K, 1130 kPa, Vibrating wire viscometry | 2.728 ± 0.045 mPa·s and 2.722 ± 0.045 mPa·s
323.15 K, 2630 kPa, Vibrating wire viscometry | 2.775 ± 0.046 mPa·s
323.15 K, 2640 kPa, Vibrating wire viscometry | 2.778 ± 0.046 mPa·s
323.15 K, 2650 kPa, Vibrating wire viscometry | 2.776 ± 0.046 mPa·s and 2.775 ± 0.046 mPa·s
323.15 K, 5040 kPa, Vibrating wire viscometry | 2.856 ± 0.048 mPa·s
323.15 K, 5070 kPa, Vibrating wire viscometry | 2.86 ± 0.048 mPa·s
323.15 K, 5100 kPa, Vibrating wire viscometry | 2.863 ± 0.048 mPa·s
323.15 K, 5170 kPa, Vibrating wire viscometry | 2.846 ± 0.048 mPa·s
323.15 K, 5180 kPa, Vibrating wire viscometry | 2.841 ± 0.048 mPa·s
323.15 K, 5190 kPa, Vibrating wire viscometry | 2.843 ± 0.048 mPa·s
323.15 K, 7740 kPa, Vibrating wire viscometry | 2.926 ± 0.049 mPa·s and 2.931 ± 0.049 mPa·s
323.15 K, 7750 kPa, Vibrating wire viscometry | 2.924 ± 0.049 mPa·s
323.15 K, 7760 kPa, Vibrating wire viscometry | 2.926 ± 0.049 mPa·s and 2.931 ± 0.049 mPa·s
323.15 K, 10130 kPa, Vibrating wire viscometry | 3.018 ± 0.05 mPa·s
323.15 K, 10140 kPa, Vibrating wire viscometry | 3.02 ± 0.05 mPa·s
323.15 K, 10150 kPa, Vibrating wire viscometry | 3.02 ± 0.05 mPa·s and 3.016 ± 0.05 mPa·s
323.15 K, 15220 kPa, Vibrating wire viscometry | 3.172 ± 0.053 mPa·s and 3.173 ± 0.053 mPa·s and 3.174 ± 0.053 mPa·s
323.15 K, 15230 kPa, Vibrating wire viscometry | 3.175 ± 0.053 mPa·s and 3.171 ± 0.053 mPa·s
323.15 K, 20200 kPa, Vibrating wire viscometry | 3.331 ± 0.056 mPa·s
323.15 K, 20230 kPa, Vibrating wire viscometry | 3.327 ± 0.055 mPa·s and 3.335 ± 0.056 mPa·s
323.15 K, 20250 kPa, Vibrating wire viscometry | 3.33 ± 0.056 mPa·s
323.15 K, 20270 kPa, Vibrating wire viscometry | 3.334 ± 0.056 mPa·s
323.15 K, 30190 kPa, Vibrating wire viscometry | 3.693 ± 0.061 mPa·s
323.15 K, 30220 kPa, Vibrating wire viscometry | 3.689 ± 0.061 mPa·s
323.15 K, 40130 kPa, Vibrating wire viscometry | 4.073 ± 0.068 mPa·s
323.15 K, 40140 kPa, Vibrating wire viscometry | 4.077 ± 0.068 mPa·s
323.15 K, 50030 kPa, Vibrating wire viscometry | 4.456 ± 0.074 mPa·s
323.15 K, 50050 kPa, Vibrating wire viscometry | 4.45 ± 0.074 mPa·s
323.15 K, 50060 kPa, Vibrating wire viscometry | 4.457 ± 0.074 mPa·s
323.16 K, 5190 kPa, Vibrating wire viscometry | 2.849 ± 0.048 mPa·s
323.16 K, 65110 kPa, Vibrating wire viscometry | 5.126 ± 0.095 mPa·s
323.16 K, 65190 kPa, Vibrating wire viscometry | 5.123 ± 0.085 mPa·s
323.16 K, 65230 kPa, Vibrating wire viscometry | 5.125 ± 0.085 mPa·s
323.16 K, 65310 kPa, Vibrating wire viscometry | 5.119 ± 0.095 mPa·s
333.03 K, 101.33 kPa, Capillary tube (Ostwald / Ubbelohde) method | 2.25 ± 0.07 mPa·s
333.15 K, 1000 kPa, Vibrating wire viscometry | 2.27 ± 0.038 mPa·s
333.15 K, 1020 kPa, Vibrating wire viscometry | 2.27 ± 0.038 mPa·s
333.15 K, 1170 kPa, Vibrating wire viscometry | 2.269 ± 0.041 mPa·s
333.15 K, 1200 kPa, Vibrating wire viscometry | 2.268 ± 0.047 mPa·s
333.15 K, 2530 kPa, Vibrating wire viscometry | 2.296 ± 0.039 mPa·s
333.15 K, 5030 kPa, Vibrating wire viscometry | 2.367 ± 0.053 mPa·s
333.15 K, 5050 kPa, Vibrating wire viscometry | 2.362 ± 0.046 mPa·s
333.15 K, 5070 kPa, Vibrating wire viscometry | 2.365 ± 0.04 mPa·s
